From paper PMC10873978, “Novel tetrahydroisoquinolines as DHFR and CDK2 inhibitors: synthesis, characterization, anticancer activity and antioxidant properties” (BMC Chemistry, 2024)
Entries after “also recorded” stand apart in the source; their conditions may differ.

Key:
[1] = tested on: MCF7 cell line; test: In vitro cytotoxic activity, MTT method, MCF7; format: cell-based, human
Description: (§1) Cell lines: The in vitro human breast cancerous cell line (MCF7), lung cancerous cell lines (A549) and normal cell lines were purchased from Serum and Vaccine formulation in Cairo-Egypt.
(§2) In vitro cytotoxic activity of all synthesized compounds against two human breast cell line (MCF7) and lung cell lines (A549) was evaluated according to the MTT method. Firstly, Growth the cell line medium in 96 well tissue culture plate was injected with 10^5 cells/mL (100 uL/plate well) of the cell line and incubated at 37 °C for 24 h to develop a monolayer sheet then the formed growth medium was poured from 96 well microtiter plates after the confluent sheet of cells. […] Secondly, add 0.1 mL of each concentration tetrahydroisoquinoline sample to each plate. The plates were incubated at 37 °C. Thirdly MTT solution (5 mg/mL in PBS) is prepared. Add 20 µL of MTT solution to each well plates. And shaking in 150 rpm for 5 min, to mix the MTT into the media. Then incubate at (37 °C, 5% CO2) for 1–5 h. Finally read the optical density at 560 nm and subtract background at 620 nm.
(§3) In this work, doxorubicin was used as a positive control drug for comparison with the synthesized compounds under the same experimental conditions.

[2] = tested on: A549 cell line; test: In vitro cytotoxic activity, MTT method, A549
Description: as §1, §2, §3

[3] = DPPH scavenging antioxidant activity
Description: The antioxidant activity of ten compounds was determined using DPPH [32–34]. A solution 1: prepared by dissolving DPPH (0.002 g) in ethanol (50 mL etnanol). Solution 2: prepared by dissolving different weights 0.05, 0.01 g of each sample in 1 mL of DMSO then take 10 µL of each sample solution with 1 mL ethanol. Then mix 1 mL of solution 1 with 1 mL of solution 2 then vortex the resulting mixture in the dark for about 30 min. The absorbance of the mixture was measured by spectrophotometer at λmax = 517 nm against blank 1 mL absolute ethanol and compared to the ascorbic acid (Vitamin C).
Ten newly synthesized compounds were studied as in vitro antioxidants by measuring of their DPPH scavenging activity which is represented as a percentage % [32]^. Results are represented by mean ± SD of three replicates. […] The higher dose concentration of 0.05 μg/mL represents higher antioxidant activity. […] The high antioxidant activity is referred to the presence of C=O, NH2, and OH groups like ascorbic acid which can be easily oxidized and reduced and can be used as antioxidant drugs. (Fig. 8 and Table 9).

SMILES: CC(=O)C1C(c2ccc(N(C)C)cc2)c2c(C)nc(SCC#N)c(C#N)c2CC1(C)O (stereo not shown) [Compound 6, 2-[(7-Acetyl-4-cyano-1,6-dimethyl-6-hydroxy-8-(4-N,N-dimethylamino-phenyl)-5,6,7,8-tetrahydroisoquinolin-3-yl)thio]acetonitrile]
- IC50 ([1]; Homo sapiens, MCF7, MCF7 cell line, MTT): 0.329 ± 0.005 µM
- Viability % ([1]; MCF7, 0.0487 µMol): 80.118%
- Toxicity % ([1]; MCF7, 0.0975 µMol): 25.5567%
- Viability % ([1]; MCF7, 0.0975 µMol): 74.5543%
- Toxicity % ([1]; MCF7, 0.195 µMol): 38.24%
- Viability % ([1]; MCF7, 0.195 µMol): 61.76%
- Toxicity % ([1]; MCF7, 0.391 µMol): 59.68%
- Viability % ([1]; MCF7, 0.391 µMol): 40.32%
- Toxicity % ([1]; MCF7, 0.781 µMol): 70.71%
- Viability % ([1]; MCF7, 0.781 µMol): 29.29%
- Toxicity % ([1]; MCF7, 1.562 µMol): 76.35%
- Viability % ([1]; MCF7, 1.562 µMol): 23.65%
- Toxicity % ([1]; MCF7, 3.125 µMol): 85.7%
- Viability % ([1]; MCF7, 3.125 µMol): 14.3%
- Toxicity % ([1]; MCF7, 6.25 µMol): 93.38%
- Viability % ([1]; MCF7, 6.25 µMol): 6.618%
- Toxicity % ([1]; MCF7, 12.5 µMol): 97.14%
- Viability % ([1]; MCF7, 12.5 µMol): 2.859%
- Toxicity % ([1]; MCF7, 25 µMol): 97.34%
- Viability % ([1]; MCF7, 25 µMol): 2.655%
- Viability % ([2]; A549, Conc. 0.0487 µMol): 99.7%
- Toxicity % ([2]; A549, Conc. 0.0975 µMol): 0.50%
- Viability % ([2]; A549, Conc. 0.0975 µMol): 99.5%
- Toxicity % ([2]; A549, Conc. 0.195 µMol): 0.6312%
- Viability % ([2]; A549, Conc. 0.195 µMol): 99.37%
- Toxicity % ([2]; A549, Conc. 0.391 µMol): 1.46%
- Viability % ([2]; A549, Conc. 0.391 µMol): 98.54%
- Toxicity % ([2]; A549, Conc. 0.781 µMol): 15.46%
- Viability % ([2]; A549, Conc. 0.781 µMol): 84.54%
- Toxicity % ([2]; A549, Conc. 1.562 µMol): 29.7%
- Viability % ([2]; A549, Conc. 1.562 µMol): 70.3%
- Toxicity % ([2]; A549, Conc. 3.125 µMol): 43.83%
- Viability % ([2]; A549, Conc. 3.125 µMol): 56.17%
- Toxicity % ([2]; A549, Conc. 6.25 µMol): 74.71%
- Viability % ([2]; A549, Conc. 6.25 µMol): 25.29%
- Toxicity % ([2]; A549, Conc. 12.5 µMol): 88.52%
- Viability % ([2]; A549, Conc. 12.5 µMol): 11.48%
- Toxicity % ([2]; A549, Conc. 25 µMol): 96.29%
- Viability % ([2]; A549, Conc. 25 µMol): 3.708%
- IC50 ([2]; Homo sapiens, read-out: IC50 ± SD): 3.736 ± 0.002 µM
- DPPH scavenging, inhibition (%) ([3]; 0.01 µg/mL): 69.67 ± 5.65%
- DPPH scavenging, inhibition (%) ([3]; 0.05 µg/mL): 83.72 ± 4.08%
- antioxidant activity compared with Vitamin C ([3]; DPPH): higher result than Vitamin C; also recorded: higher antioxidant activity than Vitamin C
